How the values were obtained:
HSP72 in U2OS cells = assay: Cell-based ELISA (Cellisa) assay, U2OS cells: inhibition of 17-AAG-induced HSP72; conditions: Homo sapiens; U2OS cells (Examples 1-168)
U2OS cells = assay: Titre Blue cell viability assay, U2OS cells; format: cell-based; conditions: Homo sapiens, U2OS

Work on `Cc1ccc(NC(=O)c2ccc3c(c2)OCCO3)cc1NC(=O)c1ccc2c(c1)CCC(CN(C)C)N2` (stereo not drawn) [Example 87, N-(5-(2,3-dihydrobenzo[b][1,4]dioxine-6-carboxamido)-2-methylphenyl)-2-((dimethylamino)methyl)-1,2,3,4-tetrahydroquinoline-6-carboxamide] yielded an IC50 (HSP72 in U2OS cells) of 0.608 µM and an IC50 (U2OS cells) of 0.26 µM.

Work on `Cc1ccc(NC(=O)c2ccc3c(c2)OCCO3)cc1NC(=O)c1ccc2nc(OCCN3CCCC3C)ccc2c1` (stereo not drawn) [Example 61, N-(5-(2,3-dihydrobenzo[b][1,4]dioxine-6-carboxamido)-2-methylphenyl)-2-(2-(2-methylpyrrolidin-1-yl)ethoxy)quinoline-6-carboxamide] yielded an IC50 (HSP72 in U2OS cells) of 0.016 µM and an IC50 (U2OS cells) of 0.018 µM.

Compound `Cc1ccc(NC(=O)c2ccc3c(c2)OCCO3)cc1NC(=O)c1ccc2nc(OC(C)CN3CCCC3)ccc2c1` (stereo not drawn) [Example 73, N-(5-(2,3-dihydrobenzo[b][1,4]dioxine-6-carboxamido)-2-methylphenyl)-2-((1-(pyrrolidin-1-yl)propan-2-yl)oxy)quinoline-6-carboxamide] has an IC50 (HSP72 in U2OS cells) of 0.09 µM and an IC50 (U2OS cells) of 0.021 µM.

`Cc1ccc(NC(=O)c2ccc3c(c2)OCCO3)cc1NC(=O)c1ccc2nc(OCCN3CCOCC3)ccc2c1` [Example 66, N-(5-(2,3-dihydrobenzo[b][1,4]dioxine-6-carboxamido)-2-methylphenyl)-2-(2-morpholinoethoxy)quinoline-6-carboxamide] showed an IC50 (HSP72 in U2OS cells) of 0.03 µM and an IC50 (U2OS cells) of 0.04 µM.

`Cc1ccc(NC(=O)c2ccc3c(c2)OCCO3)cc1NC(=O)c1ccc2nc(COC(C)C)ccc2c1` [Example 145, N-(5-(2,3-dihydrobenzo[b][1,4]dioxine-6-carboxamido)-2-methylphenyl)-2-(isopropoxymethyl)quinoline-6-carboxamide] gave an IC50 (HSP72 in U2OS cells) of 0.064 µM and an IC50 (U2OS cells) of 0.017 µM.

`Cc1ccc(NC(=O)c2ccc3c(c2)OCCO3)cc1NC(=O)c1ccc2c(c1)CCC(C)N2` (stereo not drawn) [Example 152, N-(5-(2,3-dihydrobenzo[b][1,4]dioxine-6-carboxamido)-2-methylphenyl)-2-methyl-1,2,3,4-tetrahydroquinoline-6-carboxamide] was tested, and the IC50 (HSP72 in U2OS cells) was 0.105 µM and the IC50 (U2OS cells) was 0.153 µM.

In the case of `Cc1cc(NCCN(C)C)c2cc(C(=O)Nc3cc(NC(=O)c4ccc5c(c4)OCCO5)ccc3C)ccc2n1` [Example 110, N-(5-(2,3-dihydrobenzo[b][1,4]dioxine-6-carboxamido)-2-methylphenyl)-4-(2-(dimethylamino)ethylamino)-2-methylquinoline-6-carboxamide], the IC50 (HSP72 in U2OS cells) is reported as 0.41 µM and the IC50 (U2OS cells) is reported as 0.168 µM.

`Cc1ccc(NC(=O)c2ccc3c(c2)OCCO3)cc1NC(=O)c1ccc2nc(CCN3CCCC3)ccc2c1` [Example 59, N-(5-(2,3-dihydrobenzo[b][1,4]dioxine-6-carboxamido)-2-methylphenyl)-2-(2-(pyrrolidin-1-yl)ethyl)quinoline-6-carboxamide] showed an IC50 (HSP72 in U2OS cells) of 0.015 µM and an IC50 (U2OS cells) of 0.41 µM.

Work on `Cc1ccc(NC(=O)c2ccc3c(c2)OCCO3)cc1NC(=O)c1ccc2c(c1)CCO2` [Example 6, N-(3-(2,3-dihydrobenzofuran-5-carboxamido)-4-methylphenyl)-2,3-dihydrobenzo[b][1,4]dioxine-6-carboxamide] yielded an IC50 (HSP72 in U2OS cells) of 0.017 µM and an IC50 (U2OS cells) of 0.077 µM.

`Cc1ccc(NC(=O)c2ccc3c(c2)OCCO3)cc1NC(=O)c1ccc2cnc(OCCN3CCCC3)cc2c1` [Example 156, N-(5-(2,3-dihydrobenzo[b][1,4]dioxine-6-carboxamido)-2-methylphenyl)-3-(2-(pyrrolidin-1-yl)ethoxy)isoquinoline-6-carboxamide] was tested, and the IC50 (HSP72 in U2OS cells) was 0.161 µM and the IC50 (U2OS cells) was 0.079 µM.

`Cc1ccc(NC(=O)c2ccc3c(c2)OCCO3)cc1NC(=O)c1ccnc(-n2cncn2)c1` [Example 96, N-(5-(2,3-dihydrobenzo[b][1,4]dioxine-6-carboxamido)-2-methylphenyl)-2-(1H-1,2,4-triazol-1-yl)isonicotinamide] showed an IC50 (HSP72 in U2OS cells) of 4.45 µM and an IC50 (U2OS cells) of 1.35 µM.

In the case of `Cc1ccc(NC(=O)c2ccc3c(c2)OCCO3)cc1NC(=O)c1ccc2nc(OCCCN3CCCCC3)ccc2c1` [Example 52, N-(5-(2,3-dihydrobenzo[b][1,4]dioxine-6-carboxamido)-2-methylphenyl)-2-(3-(piperidin-1-yl)propoxy)quinoline-6-carboxamide], the IC50 (HSP72 in U2OS cells) is reported as 0.012 µM and the IC50 (U2OS cells) is reported as 0.006 µM.

With `Cc1ccc(NC(=O)c2ccc3c(c2)OCCO3)cc1NC(=O)c1ccc2c(c1)CCC(=O)N2` [Example 103, N-(5-(2,3-dihydrobenzo[b][1,4]dioxine-6-carboxamido)-2-methylphenyl)-2-oxo-1,2,3,4-tetrahydroquinoline-6-carboxamide] the IC50 (HSP72 in U2OS cells) was 0.06 µM and the IC50 (U2OS cells) was 0.074 µM.

`Cc1ccc(NC(=O)c2ccc3c(c2)OCCO3)cc1NC(=O)c1cnc2[nH]ccc2c1` [Example 100, N-(5-(2,3-dihydrobenzo[b][1,4]dioxine-6-carboxamido)-2-methylphenyl)-1H-pyrrolo[2,3-b]pyridine-5-carboxamide] was tested, and the IC50 (HSP72 in U2OS cells) was 0.043 µM and the IC50 (U2OS cells) was 0.054 µM.

In the case of `Cc1ccc(NC(=O)c2ccc3c(c2)OCCO3)cc1NC(=O)c1ccc(OCc2ccccn2)nc1` [Example 25, N-(5-(2,3-dihydrobenzo[b][1,4]dioxine-6-carboxamido)-2-methylphenyl)-6-(pyridin-2-ylmethoxy)nicotinamide], the IC50 (HSP72 in U2OS cells) is reported as 1.61 µM and the IC50 (U2OS cells) is reported as 1.13 µM.

`Cc1ccc(NC(=O)c2ccc3c(c2)OCCO3)cc1NC(=O)c1ccc2nc(O[C@@H]3CCN(C)C3)ccc2c1` [Example 49, (R)—N-(5-(2,3-dihydrobenzo[b][1,4]dioxine-6-carboxamido)-2-methylphenyl)-2-((1-methylpyrrolidin-3-yl)oxy)quinoline-6-carboxamide] showed an IC50 (HSP72 in U2OS cells) of 0.002 µM and an IC50 (U2OS cells) of 0.008 µM.

With `Cc1ccc(NC(=O)c2ccc3c(c2)OCCO3)cc1NC(=O)c1ccc2nc(OCCN3CCC(F)(F)CC3)ccc2c1` [Example 72, 2-(2-(4,4-difluoropiperidin-1-yl)ethoxy)-N-(5-(2,3-dihydrobenzo[b][1,4]dioxine-6-carboxamido)-2-methylphenyl)quinoline-6-carboxamide] the IC50 (HSP72 in U2OS cells) was 0.105 µM and the IC50 (U2OS cells) was 0.06 µM.

For `CNCCCOc1ccc2cc(C(=O)Nc3cc(NC(=O)c4ccc5c(c4)OCCO5)ccc3C)ccc2n1` [Example 76, N-(5-(2,3-dihydrobenzo[b][1,4]dioxine-6-carboxamido)-2-methylphenyl)-2-(3-(methylamino)propoxy)quinoline-6-carboxamide], the IC50 (HSP72 in U2OS cells) was 0.021 µM and the IC50 (U2OS cells) was 0.01 µM.

Compound `Cc1ccc(NC(=O)c2ccc3c(c2)OCCO3)cc1NC(=O)c1ccc(OCc2cscn2)cc1` [Example 101, N-(4-methyl-3-(4-(thiazol-4-ylmethoxy)benzamido)phenyl)-2,3-dihydrobenzo[b][1,4]dioxine-6-carboxamide] has an IC50 (HSP72 in U2OS cells) of 0.122 µM and an IC50 (U2OS cells) of 0.059 µM.

Compound `Cc1ccc(NC(=O)c2ccc3c(c2)OCCO3)cc1NC(=O)c1ccc2nc(N(C)CCC(=O)O)ccc2c1` [Example 163, 3-((6-((5-(2,3-dihydrobenzo[b][1,4]dioxine-6-carboxamido)-2-methylphenyl)carbamoyl)quinolin-2-yl)(methyl)amino)propanoic acid] has an IC50 (HSP72 in U2OS cells) of 1.13 µM and an IC50 (U2OS cells) of 1.85 µM.

`Cc1ccc(NC(=O)c2ccc3c(c2)OCCO3)cc1NC(=O)c1cnc2c(c1)CCCC2` [Example 141, N-(5-(2,3-dihydrobenzo[b][1,4]dioxine-6-carboxamido)-2-methylphenyl)-5,6,7,8-tetrahydroquinoline-3-carboxamide] gave an IC50 (HSP72 in U2OS cells) of 0.032 µM and an IC50 (U2OS cells) of 0.044 µM.

In the case of `Cc1ccc(NC(=O)c2ccc3c(c2)OCCO3)cc1NC(=O)c1cc(F)c2ncccc2c1` [Example 136, N-(5-(2,3-dihydrobenzo[b][1,4]dioxine-6-carboxamido)-2-methylphenyl)-8-fluoroquinoline-6-carboxamide], the IC50 (HSP72 in U2OS cells) is reported as 0.014 µM and the IC50 (U2OS cells) is reported as 0.004 µM.

Compound `Cc1ccc(NC(=O)c2ccc3c(c2)OCCO3)cc1NC(=O)c1ccc2nc(COCCN3CCCC3)ccc2c1` [Example 147, N-(5-(2,3-dihydrobenzo[b][1,4]dioxine-6-carboxamido)-2-methylphenyl)-2-((2-(pyrrolidin-1-yl)ethoxy)methyl)quinoline-6-carboxamide] has an IC50 (HSP72 in U2OS cells) of 0.083 µM and an IC50 (U2OS cells) of 0.054 µM.

`Cc1ccc(NC(=O)c2ccc3c(c2)OCCO3)cc1NC(=O)c1ccc2nccnc2c1` [Example 36, N-(5-(2,3-dihydrobenzo[b][1,4]dioxine-6-carboxamido)-2-methylphenyl)quinoxaline-6-carboxamide] was tested, and the IC50 (HSP72 in U2OS cells) was 1.15 µM and the IC50 (U2OS cells) was 0.567 µM.

In the case of `Cc1ccc(NC(=O)c2ccc3c(c2)OCCO3)cc1NC(=O)c1ccc2nc(OC3CCN(C)CC3)ccc2c1` [Example 50, N-(5-(2,3-dihydrobenzo[b][1,4]dioxine-6-carboxamido)-2-methylphenyl)-2-((1-methylpiperidin-4-yl)oxy)quinoline-6-carboxamide], the IC50 (HSP72 in U2OS cells) is reported as 0.003 µM and the IC50 (U2OS cells) is reported as 0.01 µM.

Work on `Cc1ccc(NC(=O)c2ccc3c(c2)OCCO3)cc1NC(=O)c1cnc2ncccc2c1` [Example 45, N-(5-(2,3-dihydrobenzo[b][1,4]dioxine-6-carboxamido)-2-methylphenyl)-1,8-naphthyridine-3-carboxamide] yielded an IC50 (HSP72 in U2OS cells) of 0.036 µM and an IC50 (U2OS cells) of 0.085 µM.

`Cc1ccc(NC(=O)c2ccc3c(c2)OCCO3)cc1NC(=O)c1ccc2nc(OCCCN3CCCC3)ccc2c1` [Example 56, N-(5-(2,3-dihydrobenzo[b][1,4]dioxine-6-carboxamido)-2-methylphenyl)-2-(3-(pyrrolidin-1-yl)propoxy)quinoline-6-carboxamide] was tested, and the IC50 (HSP72 in U2OS cells) was 0.013 µM and the IC50 (U2OS cells) was 0.003 µM.

`Cc1ccc(NC(=O)c2ccc3c(c2)OCCO3)cc1NC(=O)c1ccc2c(c1)COC2` [Example 15, N-(3-(1,3-dihydroisobenzofuran-5-carboxamido)-4-methylphenyl)-2,3-dihydrobenzo[b][1,4]dioxine-6-carboxamide] gave an IC50 (HSP72 in U2OS cells) of 0.076 µM and an IC50 (U2OS cells) of 0.075 µM.

`COc1cc(C(=O)Nc2cc(NC(=O)c3ccc4c(c3)OCCO4)ccc2C)cc2sc(N)nc12` [Example 95, 2-amino-N-(5-(2,3-dihydrobenzo[b][1,4]dioxine-6-carboxamido)-2-methylphenyl)-4-methoxybenzo[d]thiazole-6-carboxamide] gave an IC50 (HSP72 in U2OS cells) of 0.089 µM and an IC50 (U2OS cells) of 0.156 µM.

`COCc1ccc2cc(C(=O)Nc3cc(NC(=O)c4ccc5c(c4)OCCO5)ccc3C)ccc2n1` [Example 137, N-(5-(2,3-dihydrobenzo[b][1,4]dioxine-6-carboxamido)-2-methylphenyl)-2-(methoxymethyl)quinoline-6-carboxamide] gave an IC50 (HSP72 in U2OS cells) of 0.015 µM and an IC50 (U2OS cells) of 0.026 µM.

— patent US9701664B2, “Fused 1,4-dihydrodioxin derivatives as inhibitors of heat shock transcription factor 1” (Cancer Research Technology Limited, priority 2013, dated 2017)
